# Experimental data taken from ChEMBL document CHEMBL1201862, “PubChem BioAssay data set” (2004).
# The source made the active and inactive calls.
# Columns and labels:
# [1] = target: Phosphoethanolamine/phosphocholine phosphatase (Homo sapiens, UniProt Q8TCT1); assay: SAR assay for compounds that inhibit PHOSPHO1. [Related pubchem assays (depositor defined):AID1545, AID1565, AID1574]
# [2] = target: T1, Mannose-6-phosphate isomerase (Homo sapiens, UniProt P34949); assay: phosphomannose isomerase inhibition – biochemical, fluorescence intensity, confirmation (AID 1535)
# T1 sequence (P34949 whole entry): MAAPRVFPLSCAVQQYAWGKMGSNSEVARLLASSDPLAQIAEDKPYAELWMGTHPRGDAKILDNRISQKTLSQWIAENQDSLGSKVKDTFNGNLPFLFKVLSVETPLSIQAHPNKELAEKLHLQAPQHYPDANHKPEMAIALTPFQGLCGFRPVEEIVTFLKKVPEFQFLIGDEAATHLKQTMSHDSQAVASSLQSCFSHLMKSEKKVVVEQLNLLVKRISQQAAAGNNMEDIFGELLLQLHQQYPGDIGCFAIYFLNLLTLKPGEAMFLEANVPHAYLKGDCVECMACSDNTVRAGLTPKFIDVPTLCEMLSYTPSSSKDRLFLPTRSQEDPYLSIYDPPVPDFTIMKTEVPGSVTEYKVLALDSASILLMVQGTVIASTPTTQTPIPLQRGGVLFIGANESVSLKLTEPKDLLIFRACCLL
# [3] = target: T2, Melanin-concentrating hormone receptor 1 (Homo sapiens, UniProt Q99705); assay: Late-stage fluorescence-based counterscreen for antagonists of the G-protein coupled receptor 7 (GPR7): cell-based dose response assay to identify antagonists of the melanin-concentrating hormone receptor 1 (MCHR1). [Related pubchem assays (depositor defined):AID1861, AID1880, AID1952, AID2148, AID2251, AID2257, AID485339]; assay type: functional
# T2 sequence (Q99705 whole entry): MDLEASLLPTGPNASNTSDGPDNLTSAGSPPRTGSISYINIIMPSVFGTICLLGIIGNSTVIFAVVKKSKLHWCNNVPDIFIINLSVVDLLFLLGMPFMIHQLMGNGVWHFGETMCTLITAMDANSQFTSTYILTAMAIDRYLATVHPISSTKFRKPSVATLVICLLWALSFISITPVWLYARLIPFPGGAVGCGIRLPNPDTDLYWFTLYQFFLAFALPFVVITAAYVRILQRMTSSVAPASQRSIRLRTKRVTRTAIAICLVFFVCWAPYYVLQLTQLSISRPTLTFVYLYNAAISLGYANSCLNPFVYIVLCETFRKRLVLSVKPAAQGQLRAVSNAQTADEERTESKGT
# [4] = viability loss in HEK293 cells – cell-based, plate reader, cherry-picked samples, cytotoxicity control, dose response (AID 743446); assay type: functional
# [5] = target: T3, Neuropeptides B/W receptor type 1 (Homo sapiens, UniProt P48145); assay: Fluorescence-based dose response cell-based high throughput screening assay to identify antagonists of the G-protein coupled receptor 7 (GPR7). [Related pubchem assays: 1952 (Screening assay (GPR7 antagonists).), 1880 (Summary AID.)]; assay type: functional
# T3 sequence (P48145 whole entry): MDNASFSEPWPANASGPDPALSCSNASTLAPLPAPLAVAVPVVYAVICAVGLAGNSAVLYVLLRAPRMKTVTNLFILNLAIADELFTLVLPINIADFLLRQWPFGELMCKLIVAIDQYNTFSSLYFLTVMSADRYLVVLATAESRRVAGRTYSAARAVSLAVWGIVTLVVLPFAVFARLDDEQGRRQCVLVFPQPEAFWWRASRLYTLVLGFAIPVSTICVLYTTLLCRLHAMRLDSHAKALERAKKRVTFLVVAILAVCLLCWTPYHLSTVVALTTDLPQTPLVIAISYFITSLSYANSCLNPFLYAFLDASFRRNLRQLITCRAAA
# [6] = target: T2, Melanin-concentrating hormone receptor 1; assay: Fluorescence-based counterscreen for antagonists of the G-protein coupled receptor 7 (GPR7): cell-based high throughput dose response assay to identify antagonists of the melanin-concentrating hormone receptor 1 (MCHR1).; assay type: functional
# [7] = toxicity toward HepG2 liver cells – cell-based, plate reader, cherry-pick, antagonist series, cytotoxicity control, dose response (AID 743416); assay type: functional
# [8] = A549 cell cytotoxicity, dose response, cytotoxicity control, plate reader, cherry-pick, antagonist series (AID 743412); assay type: functional, cell-based
# [9] = target: T3, Neuropeptides B/W receptor type 1; assay: human NPBW1 receptor blockade, IC50 – cell-based, fluorescence, dose response, late-stage follow-up (AID 463251); assay type: functional
# [10] = target: Dual specificity protein phosphatase 3 (Homo sapiens, UniProt P51452); assay: SAR VHR1 Fluorescent Assay for In Vitro dose response studies Set 2. [Related pubchem assays (depositor defined):AID1654, AID1661, AID1878]; assay type: functional
# Dual specificity protein phosphatase 3, sequence (P51452 whole entry): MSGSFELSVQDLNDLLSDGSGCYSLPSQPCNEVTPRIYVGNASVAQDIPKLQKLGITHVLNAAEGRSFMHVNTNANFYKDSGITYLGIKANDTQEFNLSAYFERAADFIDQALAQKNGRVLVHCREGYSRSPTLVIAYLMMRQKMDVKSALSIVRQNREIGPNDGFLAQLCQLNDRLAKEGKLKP
# [11] = target: T4, Tyrosine-protein phosphatase non-receptor type 7 (Homo sapiens, UniProt P35236); assay: SAR analysis of chemical inhibitors of HePTP using a Fluorescent assay - Set 2. [Related pubchem assays (depositor defined):AID1059, AID1077, AID1661, AID2085, AID521]; assay type: functional
# T4 sequence (P35236 whole entry): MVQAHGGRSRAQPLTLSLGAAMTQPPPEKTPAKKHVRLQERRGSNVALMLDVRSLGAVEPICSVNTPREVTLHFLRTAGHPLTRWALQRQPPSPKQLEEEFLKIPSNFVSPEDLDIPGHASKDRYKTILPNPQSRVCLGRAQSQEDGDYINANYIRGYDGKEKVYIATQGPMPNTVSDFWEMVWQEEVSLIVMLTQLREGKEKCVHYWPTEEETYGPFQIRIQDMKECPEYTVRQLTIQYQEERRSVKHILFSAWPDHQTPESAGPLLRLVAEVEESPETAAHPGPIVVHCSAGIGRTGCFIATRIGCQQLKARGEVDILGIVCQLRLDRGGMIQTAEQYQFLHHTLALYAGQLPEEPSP
# Coagulation factor XII = target: T5, Coagulation factor XII (Homo sapiens, UniProt P00748); assay: activated coagulation factor XII inhibitor potency, concentration-effect curve, cell-free (AID 716); assay type: functional
# T5 sequence (P00748 whole entry): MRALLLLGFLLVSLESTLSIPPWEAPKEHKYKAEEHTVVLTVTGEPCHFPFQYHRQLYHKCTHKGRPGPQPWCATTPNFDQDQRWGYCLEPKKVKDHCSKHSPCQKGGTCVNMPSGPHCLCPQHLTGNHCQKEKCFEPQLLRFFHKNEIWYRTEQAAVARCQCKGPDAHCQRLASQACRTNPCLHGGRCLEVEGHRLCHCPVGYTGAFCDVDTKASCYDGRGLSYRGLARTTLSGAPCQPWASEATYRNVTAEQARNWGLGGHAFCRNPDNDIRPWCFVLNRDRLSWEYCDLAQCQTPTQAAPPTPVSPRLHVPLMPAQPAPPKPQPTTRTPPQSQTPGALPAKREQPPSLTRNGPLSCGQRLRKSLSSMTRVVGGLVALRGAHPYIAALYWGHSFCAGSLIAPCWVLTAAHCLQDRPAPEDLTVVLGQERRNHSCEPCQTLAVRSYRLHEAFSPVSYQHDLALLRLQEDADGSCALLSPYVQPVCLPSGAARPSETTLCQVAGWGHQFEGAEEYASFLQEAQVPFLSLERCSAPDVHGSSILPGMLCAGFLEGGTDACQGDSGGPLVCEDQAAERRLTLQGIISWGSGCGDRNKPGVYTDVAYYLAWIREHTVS
# Phosphoethanolamine/phosphocholine phosphatase, sequence (Q8TCT1 whole entry): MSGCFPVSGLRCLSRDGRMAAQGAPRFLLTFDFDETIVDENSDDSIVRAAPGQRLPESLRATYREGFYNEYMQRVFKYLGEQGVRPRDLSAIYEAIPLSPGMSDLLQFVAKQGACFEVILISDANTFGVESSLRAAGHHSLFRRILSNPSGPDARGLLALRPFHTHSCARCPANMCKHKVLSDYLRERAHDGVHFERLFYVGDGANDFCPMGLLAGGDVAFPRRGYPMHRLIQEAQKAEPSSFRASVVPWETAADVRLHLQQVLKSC
smiles,measurement,setting,value
O=c1c2c([N+](=O)[O-])cc([N+](=O)[O-])cc2sn1-c1ccc(OC(F)(F)Cl)cc1,IC50,[1],0.233 µM (active)
same,IC50,[2],2.14 µM (active)
O=[N+]([O-])c1cc(S(=O)(=O)N2CCCCCC2)ccc1Cl,IC50,[3],10.1 µM (inactive)
same,AC50,[4],> 52 µM (inactive)
same,IC50,[5],2.88 µM (active)
same,IC50,[6],8.01 µM (active)
same,AC50,[7],> 52 µM (inactive)
same,AC50,[8],> 52 µM (inactive)
same,IC50,[9],5.8 µM (active)
COc1cc(C(=S)NCc2cccc(F)c2)ccc1O,IC50,[10],32.8 µM (active)
same,IC50,[11],23.4 µM (active)
COCCn1nnnc1C(c1cc2ccc(C)cc2[nH]c1=O)N(Cc1ccco1)Cc1cccs1 (configuration not stated),IC50,Coagulation factor XII,> 50 µM (inactive)
